The text below walks through data of patent US8343983B2, “Substituted pyrazolo-pyrimidine compounds” (ArQule, Inc., priority 2009, dated 2013).

This assay relates to cancer cells. In words: MTS assay: inhibition of cell growth (formazan absorbance at 492 nm after 72 hours with test compound). The format is cell-based. Particulars: inhibition class. A digest of the protocol:
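DMEM with 1% FBS; cells seeded at 3000/well and grown 18 h at 37 °C, then exposed to compound for 72 h and to MTS/PMS for 4 h. IC50 is the concentration giving a 50% absorbance drop; grades are % inhibition bands.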

Where [1] appears, read: Homo sapiens, DLD-1 cells, read-out: DLD-1, MTS 72 hours at 10 uM.
The mark [2] stands for this setting: Homo sapiens, KATO III cells, read-out: KATO III, MTS 72 hours at 10 uM.
The mark [3] stands for this setting: Homo sapiens, MDA-MB-231 cells, read-out: MDA-MB-231, MTS 72 hours at 10 uM.
Setting [4] is: Homo sapiens, NCI-H1299 cells, read-out: NCI-H1299, MTS 72 hours at 10 uM.
Where [5] appears, read: Homo sapiens, PC-3 cells, read-out: PC-3, MTS 72 hours at 10 uM.
[6] abbreviates: PACA-2 cells, read-out: PACA-2, MTS 72 hours at 10 uM.

The structures appear in SMILES notation. Like-named read-outs stand apart in the source and are kept apart here. A value given as a limit tells only on which side of the number the result lay.

`CS(=O)(=O)c1nc2c3c(n[nH]c3n1)CCN2Cc1ccccc1` [Compound 2, 6-benzyl-4-(methylsulfonyl)-2,6,7,8-tetrahydro-1,2,3,5,6-pentaazaacenaphthylene]: the inhibition at 10 µM under setting [1] was less than 50%; the inhibition at 10 µM under setting [2] is less than 50%; the inhibition at 10 µM under setting [3] was less than 50%; the inhibition at 10 µM under setting [4] is less than 50%; the inhibition at 10 µM under setting [5] was less than 50%; the inhibition at 10 µM under setting [6] was less than 50%.
With `COc1cccc(N2CCN(c3nc4c5c(n[nH]c5n3)CCN4Cc3ccccc3)CC2)c1` [Compound 9, 6-benzyl-4-[4-(3-methoxyphenyl)piperazin-1-yl]-2,6,7,8-tetrahydro-1,2,3,5,6-pentaazaacenaphthylene], the inhibition at 10 µM under setting [1] is less than 50%; the inhibition at 10 µM under setting [2] is less than 50%; the inhibition at 10 µM under setting [3] was greater than 79%; the inhibition at 10 µM under setting [4] was less than 50%; the inhibition at 10 µM under setting [5] is greater than 79%; the inhibition at 10 µM under setting [6] is less than 50%.
Consider `Brc1ccc(CCNc2nc3c4c(n[nH]c4n2)CCN3Cc2ccccc2)cc1` [Compound 97, 6-benzyl-N-[2-(4-bromophenyl)ethyl]-2,6,7,8-tetrahydro-1,2,3,5,6-pentaazaacenaphthylen-4-amine], for which the inhibition at 10 µM is, setting by setting: under setting [1], 50 to 79%; under setting [2], less than 50%; under setting [3], less than 50%; under setting [4], 50 to 79%; under setting [5], less than 50%; under setting [6], less than 50%.
In the case of `COc1ccc(CN2CCc3nn(C)c4nc(SC)nc2c34)cc1` [Compound 130, 6-(4-methoxybenzyl)-2-methyl-4-(methylsulfanyl)-2,6,7,8-tetrahydro-1,2,3,5,6-pentaazaacenaphthylene], the inhibition at 10 µM under setting [1] was less than 50%; the inhibition at 10 µM under setting [2] is less than 50%; the inhibition at 10 µM under setting [3] was less than 50%; the inhibition at 10 µM under setting [4] is less than 50%; the inhibition at 10 µM under setting [5] was less than 50%; the inhibition at 10 µM under setting [6] was 50 to 79%.
As to `COc1ccc(CN2CCc3n[nH]c4nc(Nc5ccc(N6CCN(C)CC6)cc5)nc2c34)cc1` [Compound 120, 6-(4-methoxybenzyl)-N-[4-(4-methylpiperazin-1-yl)phenyl]-2,6,7,8-tetrahydro-1,2,3,5,6-pentaazaacenaphthylen-4-amine], the inhibition at 10 µM under setting [1] was greater than 79%; the inhibition at 10 µM under setting [2] is greater than 79%; the inhibition at 10 µM under setting [3] is greater than 79%; the inhibition at 10 µM under setting [4] was 50 to 79%; the inhibition at 10 µM under setting [5] was greater than 79%; the inhibition at 10 µM under setting [6] was greater than 79%.
`COc1ccc(CNc2nc3c4c(n[nH]c4n2)CCN3Cc2ccccc2)cc1OC` [Compound 47, 6-benzyl-N-(3,4-dimethoxybenzyl)-2,6,7,8-tetrahydro-1,2,3,5,6-pentaazaacenaphthylen-4-amine]: the inhibition at 10 µM under setting [1] was less than 50%; the inhibition at 10 µM under setting [2] is less than 50%; the inhibition at 10 µM under setting [3] is less than 50%; the inhibition at 10 µM under setting [4] was less than 50%; the inhibition at 10 µM under setting [5] was less than 50%; the inhibition at 10 µM under setting [6] was less than 50%.
As to `O=C(NCc1ccccc1)C1CN(Cc2ccccc2)c2nc(NC3CCC3)nc3[nH]nc1c23` (stereo not drawn) [Compound 232, N,6-dibenzyl-4-(cyclobutylamino)-2,6,7,8-tetrahydro-1,2,3,5,6-pentaazaacenaphthylene-8-carboxamide], the inhibition at 10 µM is less than 50% under setting [1]; less than 50% under setting [2]; less than 50% under setting [3]; less than 50% under setting [4]; less than 50% under setting [5]; less than 50% under setting [6].
As for `COc1ccc(CN2CCc3n[nH]c4nc(NCc5ccccc5)nc2c34)cc1` [Compound 100, N-benzyl-6-(4-methoxybenzyl)-2,6,7,8-tetrahydro-1,2,3,5,6-pentaazaacenaphthylen-4-amine], the inhibition at 10 µM is, setting by setting: under setting [1], less than 50%; under setting [2], less than 50%; under setting [3], less than 50%; under setting [4], less than 50%; under setting [5], less than 50%; under setting [6], less than 50%.
As to `COc1ccc(CN2CCc3n[nH]c4nc(NCCOc5ccccc5)nc2c34)cc1` [Compound 108, 6-(4-methoxybenzyl)-N-(2-phenoxyethyl)-2,6,7,8-tetrahydro-1,2,3,5,6-pentaazaacenaphthylen-4-amine], the inhibition at 10 µM is 50 to 79% under setting [1]; less than 50% under setting [2]; less than 50% under setting [3]; less than 50% under setting [4]; less than 50% under setting [5]; greater than 79% under setting [6].
For the molecule `C[C@@H]1CN(c2nc3c4c(n[nH]c4n2)CCN3Cc2ccccc2)C[C@H](C)O1` [Compound 96, 6-benzyl-4-[(2R,6S)-2,6-dimethylmorpholin-4-yl]-2,6,7,8-tetrahydro-1,2,3,5,6-pentaazaacenaphthylene], the inhibition at 10 µM runs as follows: under setting [1], less than 50%; under setting [2], greater than 79%; under setting [3], greater than 79%; under setting [4], less than 50%; under setting [5], greater than 79%; under setting [6], less than 50%.
On to `c1ccc(CN2CCc3n[nH]c4nc(NCCc5c[nH]c6ccccc56)nc2c34)cc1` [Compound 26, 6-benzyl-N-[2-(1H-indol-3-yl)ethyl]-2,6,7,8-tetrahydro-1,2,3,5,6-pentaazaacenaphthylen-4-amine], for which the inhibition at 10 µM under setting [1] is less than 50%; the inhibition at 10 µM under setting [2] is less than 50%; the inhibition at 10 µM under setting [3] was less than 50%; the inhibition at 10 µM under setting [4] was less than 50%; the inhibition at 10 µM under setting [5] is less than 50%; the inhibition at 10 µM under setting [6] was less than 50%.
In the case of `Clc1ccc(CCNc2nc3c4c(n[nH]c4n2)CCN3Cc2ccccc2)cc1` [Compound 61, 6-benzyl-N-[2-(4-chlorophenyl)ethyl]-2,6,7,8-tetrahydro-1,2,3,5,6-pentaazaacenaphthylen-4-amine], the inhibition at 10 µM by setting is: under setting [1], 50 to 79%; under setting [2], less than 50%; under setting [3], less than 50%; under setting [4], 50 to 79%; under setting [5], less than 50%; under setting [6], less than 50%.
Consider `Cc1ccccc1CNC(=O)C1CN(Cc2ccccc2)c2nc(NCc3ccccc3)nc3[nH]nc1c23` (stereo not drawn) [Compound 233, 6-benzyl-4-(benzylamino)-N-(2-methylbenzyl)-2,6,7,8-tetrahydro-1,2,3,5,6-pentaazaacenaphthylene-8-carboxamide], for which the inhibition at 10 µM is greater than 79% under setting [1]; 50 to 79% under setting [2]; greater than 79% under setting [3]; greater than 79% under setting [4]; greater than 79% under setting [5]; less than 50% under setting [6].
For `COc1ccc2c(CCNc3nc4c5c(n[nH]c5n3)CCN4Cc3ccccc3)c[nH]c2c1` [Compound 98, 6-benzyl-N-[2-(6-methoxy-1H-indol-3-yl)ethyl]-2,6,7,8-tetrahydro-1,2,3,5,6-pentaazaacenaphthylen-4-amine], the inhibition at 10 µM is less than 50% under setting [1]; 50 to 79% under setting [2]; 50 to 79% under setting [3]; 50 to 79% under setting [4]; greater than 79% under setting [5]; less than 50% under setting [6].
